# Where a name gives a salt, the structure may show the parent alone.
# Experiments:
# CLK1 = molecular target: T1, CLK1 (Homo sapiens, UniProt P49759); assay: Radiometric protein kinase assay (33PanQinase Activity Assay), CLK1; format: biochemical; conditions: class by IC50 on CLK1, from dose-response curves; read-out: Potency Class CLK1
# T1 construct: GST-fusion or His-tag (not specified per kinase); purchased ProQinase GmbH; host or cells: Sf9 insect cells or E. coli (not specified per kinase)
# Procedure: Assays were performed by ProQinase GmbH (Engesserstr. 4, D-79108 Freiburg, Germany. www.proqinase.com). The IC50 profile of all compounds was determined using 12 protein kinases (CDK2/cyclin E, CK1ε, CLK1, 2, 3, 4, DYRK1A, 1B, 2, 3, 4, GSK3β).
# (§1) The compounds were provided as […] in 100% DMSO. Prior to testing, the 1 μM stock solutions were subjected to a serial, semi-logarithmic dilution using 100% DMSO as a solvent. […] In the process, 90 μl H2O were added to each well of each compound dilution plate. To minimize potential precipitation, the H2O was added to each plate only a few minutes before the transfer of the compound solutions into the assay plates. The plate was shaken thoroughly, resulting in a compound dilution plate/10% DMSO.
# (§2) For the assays (see below), 5 μL solution from each well of the compound dilution plates/10% DMSO were transferred into the assay plates. The final volume of the assay was 50 μL. All compounds were tested at 10 final assay concentrations in the range from 10 μM to 30 nM. The final DMSO concentration in the reaction cocktails was 1% in all cases.
# (§3) All protein kinases provided by ProQinase were expressed in Sf9 insect cells or in E. coli as recombinant GST-fusion proteins or His-tagged proteins, either as full-length or enzymatically active fragments. All kinases were produced from human cDNAs and purified by either GSH-affinity chromatography or immobilized metal. Affinity tags were removed from a number of kinases during purification. The purity of the protein kinases was examined by SDS-PAGE/Coomassie staining, the identity was checked by mass spectroscopy.
# (§4) A radiometric protein kinase assay (33PanQinase® Activity Assay) was used for measuring the kinase activity of the 12 protein kinases. All kinase assays were performed in 96-well FlashPlates™ from PerkinElmer (Boston, MA, USA) in a 50 μL reaction volume. The reaction cocktail was pipetted in four steps in the following order: • 25 μL of assay buffer (standard buffer/[γ-^33P]-ATP), • 10 μL of ATP solution (in H2O), • 5 μL of test compound (in 10% DMSO), • 10 μL of enzyme/substrate mixture.
# (§5) The reaction cocktails were incubated at 30° C. for 60 minutes. The reaction was stopped with 50 μL of 2% (v/v) H3PO4, plates were aspirated and washed two times with 200 μL 0.9% (w/v) NaCl. Incorporation of ^33Pi was determined with a microplate scintillation counter (Microbeta, Wallac). The IC50 values for all compounds were calculated from the dose response curves
# As a parameter for assay quality, the Z′-factor (Zhang et al., J. Biomol. Screen. 2: 67-73, 1999) for the low and high controls of each assay plate (n=8) was used. ProQinase's criterion for repetition of an assay plate is a Z′-factor below 0.4 (Iversen et al., J. Biomol. Screen. 3: 247-252, 2006).
# DYRK1A = molecular target: T2, DYRK1A (Homo sapiens, UniProt Q13627); assay: Radiometric protein kinase assay (33PanQinase Activity Assay), DYRK1A; format: biochemical; conditions: for IC50: class by IC50 on DYRK1A, from dose-response curves, read-out: Potency Class DYRK1A; for Selectivity Class DYRK1A vs. CLK1: ratio of IC50 on CLK1 over IC50 on DYRK1A; for Selectivity Class DYRK1A vs. DYRK1B: ratio of IC50 on DYRK1B over IC50 on DYRK1A
# T2 construct: GST-fusion or His-tag (not specified per kinase); purchased ProQinase GmbH; host or cells: Sf9 insect cells or E. coli (not specified per kinase)
# Procedure: The IC50 profile of all compounds was determined using 12 protein kinases (CDK2/cyclin E, CK1ε, CLK1, 2, 3, 4, DYRK1A, 1B, 2, 3, 4, GSK3β).
# as §1, §2, §3, §4, §5
# T1 sequence (P49759 whole entry, the tested form may be a part): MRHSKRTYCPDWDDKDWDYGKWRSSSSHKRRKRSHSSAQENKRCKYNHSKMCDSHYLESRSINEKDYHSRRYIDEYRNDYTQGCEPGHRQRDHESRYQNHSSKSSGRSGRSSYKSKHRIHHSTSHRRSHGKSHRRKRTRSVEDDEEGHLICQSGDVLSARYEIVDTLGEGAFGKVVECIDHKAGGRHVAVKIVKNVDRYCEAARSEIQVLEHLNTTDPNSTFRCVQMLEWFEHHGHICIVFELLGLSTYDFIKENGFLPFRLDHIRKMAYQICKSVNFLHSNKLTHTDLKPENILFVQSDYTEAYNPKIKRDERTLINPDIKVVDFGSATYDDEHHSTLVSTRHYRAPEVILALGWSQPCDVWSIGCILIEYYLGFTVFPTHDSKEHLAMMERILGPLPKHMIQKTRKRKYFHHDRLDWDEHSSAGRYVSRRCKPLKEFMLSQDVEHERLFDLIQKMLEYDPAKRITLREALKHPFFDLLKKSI
SMILES,IC50 (CLK1) [nM],IC50 (DYRK1A) [nM],Selectivity Class DYRK1A vs. CLK1 (DYRK1A),Selectivity Class DYRK1A vs. DYRK1B (DYRK1A)
"O=C1NC(NCc2ccccc2C(F)(F)F)=N/C1=C\c1ccc2nccnc2c1 [Compound 22, (4Z)-4-(quinoxalin-6-ylmethylene)-2-[[2-(trifluoromethyl)phenyl]methylamino]-1H-imidazol-5-one]",> 50,> 50,III (ratio between 0.5 and 2 fold),II (ratio between 2 and 10 fold)
"COC[C@H](NC1=N/C(=C\c2ccc3nccnc3c2)C(=O)N1)c1ccccc1 [Compound 26, (4Z)-2-[[(1R)-2-methoxy-1-phenyl-ethyl]amino]-4-(quinoxalin-6-ylmethylene)-1H-imidazol-5-one]",> 50,> 50,III (ratio between 0.5 and 2 fold),II (ratio between 2 and 10 fold)
"O=C1NC(NC[C@H](O)c2ccccc2)=N/C1=C\c1ccc2nccnc2c1 [Compound 27, (4Z)-2-[[(2R)-2-hydroxy-2-phenyl-ethyl]amino]-4-(quinoxalin-6-ylmethylene)-1H-imidazol-5-one]",> 50,> 50,III (ratio between 0.5 and 2 fold),II (ratio between 2 and 10 fold)
"NC[C@H](NC1=N/C(=C\c2ccc3nccnc3c2)C(=O)N1)c1ccccc1 [Compound 28, (4Z)-2-[[(1R)-2-amino-1-phenyl-ethyl]amino]-4-(quinoxalin-6-ylmethylene)-1H-imidazol-5-one dihydrochloride]",25 to 50,25 to 50,III (ratio between 0.5 and 2 fold),II (ratio between 2 and 10 fold)
"NC[C@@H](NC1=N/C(=C\c2ccc3nccnc3c2)C(=O)N1)c1ccccc1 [Compound 29, (4Z)-2-[[(1S)-2-Amino-1-phenyl-ethyl]amino]-4-(quinoxalin-6-ylmethylene)-1H-imidazol-5-one dihydrochloride]",> 50,25 to 50,III (ratio between 0.5 and 2 fold),II (ratio between 2 and 10 fold)
"Cc1csc(CNC2=N/C(=C\c3ccc4nccnc4c3)C(=O)N2)n1 [Compound 31, (4Z)-2-[(4-methylthiazol-2-yl)methylamino]-4-(quinoxalin-6-ylmethylene)-1H-imidazol-5-one]",> 50,> 50,III (ratio between 0.5 and 2 fold),III (ratio between 0.5 and 2 fold)
"CN1CCN(c2ccc(NC3=N/C(=C\c4ccc5nccnc5c4)C(=O)N3)cc2)CC1 [Compound 33, (4Z)-2-[4-(4-Methylpiperazin-1-yl)anilino]-4-(quinoxalin-6-ylmethylene)-1H-imidazol-5-one]",> 50,25 to 50,II (ratio between 2 and 10 fold),II (ratio between 2 and 10 fold)

# Second part, the molecule after the results:
IC50 (CLK1) [nM],IC50 (DYRK1A) [nM],Selectivity Class DYRK1A vs. CLK1 (DYRK1A),Selectivity Class DYRK1A vs. DYRK1B (DYRK1A),SMILES
> 50,10 to 25,II (ratio between 2 and 10 fold),II (ratio between 2 and 10 fold),"O=C1NC(N[C@H]2c3ccccc3C[C@@H]2O)=N/C1=C\c1ccc2nccnc2c1 [Compound 23, (4Z)-2-[[(1S,2S)-2-hydroxyindan-1-yl]amino]-4-(quinoxalin-6-ylmethylene)-1H-imidazol-5-one]"
> 50,> 50,IV (ratio between 0.1 and 0.5 fold),II (ratio between 2 and 10 fold),"Cc1cnc(CNC2=N/C(=C\c3ccc4nccnc4c3)C(=O)N2)cn1 [Compound 30, (4Z)-2-[(5-methylpyrazin-2-yl)methylamino]-4-(quinoxalin-6-ylmethylene)-1H-imidazol-5-one]"
> 50,> 50,III (ratio between 0.5 and 2 fold),II (ratio between 2 and 10 fold),"O=C1NC(NCC2CCOCC2)=N/C1=C\c1ccc2nccnc2c1 [Compound 32, (4Z)-4-(quinoxalin-6-ylmethylene)-2-(tetrahydropyran-4-ylmethylamino)-1H-imidazol-5-one]"
> 50,> 50,III (ratio between 0.5 and 2 fold),II (ratio between 2 and 10 fold),"Cn1ccc(NC2=N/C(=C\c3ccc4nccnc4c3)C(=O)N2)n1 [Compound 34, (4Z)-2-[(1-methylpyrazol-3-yl)amino]-4-(quinoxalin-6-ylmethylene)-1H-imidazol-5-one]"
> 50,> 50,II (ratio between 2 and 10 fold),II (ratio between 2 and 10 fold),"O=C1NC(Nc2ccccn2)=N/C1=C\c1ccc2nccnc2c1 [Compound 35, (4Z)-2-(2-pyridylamino)-4-(quinoxalin-6-ylmethylene)-1H-imidazol-5-one]"
> 50,> 50,III (ratio between 0.5 and 2 fold),II (ratio between 2 and 10 fold),"O=C1NC(N[C@@H]2CCOC2)=N/C1=C\c1ccc2nccnc2c1 [Compound 37, (4Z)-4-(quinoxalin-6-ylmethylene)-2-[[(3R)-tetrahydrofuran-3-yl]amino]-1H-imidazol-5-one]"
> 50,> 50,III (ratio between 0.5 and 2 fold),II (ratio between 2 and 10 fold),"O=C1NC(N[C@H]2CCCOC2)=N/C1=C\c1ccc2nccnc2c1 [Compound 38, (4Z)-4-(quinoxalin-6-ylmethylene)-2-[[(3S)-tetrahydropyran-3-yl]amino]-1H-imidazol-5-one]"
> 50,25 to 50,III (ratio between 0.5 and 2 fold),II (ratio between 2 and 10 fold),"O=C1NC(N[C@@H]2CCCOC2)=N/C1=C\c1ccc2nccnc2c1 [Compound 39, (4Z)-4-(quinoxalin-6-ylmethylene)-2-[[(3R)-tetrahydropyran-3-yl]amino]-1H-imidazol-5-one]"
> 50,> 50,III (ratio between 0.5 and 2 fold),II (ratio between 2 and 10 fold),"O=C1NC(N[C@@H]2COCC[C@H]2O)=N/C1=C\c1ccc2nccnc2c1 [Compound 40, (4Z)-2-[[(3R,4R)-4-Hydroxytetrahydropyran-3-yl]amino]-4-(quinoxalin-6-ylmethylene)-1H-imidazol-5-one]"
> 50,> 50,III (ratio between 0.5 and 2 fold),II (ratio between 2 and 10 fold),"O=C1NC(NC2COCCOC2)=N/C1=C\c1ccc2nccnc2c1 [Compound 42, (4Z)-2-(1,4-dioxepan-6-ylamino)-4-(quinoxalin-6-ylmethylene)-1H-imidazol-5-one]"
> 50,> 50,III (ratio between 0.5 and 2 fold),II (ratio between 2 and 10 fold),"O=C1NC(NC2CCCCC2)=N/C1=C\c1ccc2ncccc2c1 [Compound 43, (4Z)-2-(Cyclohexylamino)-4-(6-quinolylmethylene)-1H-imidazol-5-one]"
